Reference: patent US10034476B2, “Insecticidal phenyl-or pyridyl-piperdine compounds” (Syngenta Participations AG, priority 2008, dated 2018)

Tests used:
Format in all cases: in vivo
[1] = tested on: Diabrotica balteata; test: Diabrotica balteata (corn root worm) artificial diet test; conditions: 120 h, 200 ppm (concentration in well 18 ppm), L2 larvae, 5 days, larval mortality, growth regulation
Protocol: Diabrotica Balteata (Corn Root Worm): A 24-well microtiter plate (MTP) with artificial diet was treated with test solutions at an application rate of 200 ppm (concentration in well 18 ppm) by pipetting. After drying, the MTP's were infested with larvae (L2) (6-10 per well). After an incubation period of 5 days, samples were checked for larval mortality, and growth regulation.

[2] = tested on: Spodoptera littoralis; test: Spodoptera littoralis (Egyptian cotton leafworm) cotton leaf disc spray test; conditions: foliar, 72 h, 200 ppm spray on cotton leaf discs, L1 larvae, 3 DAT, mortality, feeding behavior, growth regulation
Text: Spodoptera littoralis (Egyptian Cotton Leafworm) Cotton leaf discs were placed on agar in a 24-well microtiter plate and sprayed with test solutions at an application rate of 200 ppm. After drying, the leaf discs were infested with 5 L1 larvae. The samples were checked for mortality, feeding behavior, and growth regulation 3 days after treatment (DAT).

[3] = tested on: Heliothis virescens; test: Heliothis virescens (tobacco budworm) egg/artificial diet test; conditions: 96 h, 200 ppm (concentration in well 18 ppm), eggs 0-24 h old on artificial diet, 4 days, egg mortality, larval mortality, growth regulation
Protocol: Heliothis virescens (Tobacco Budworm): Eggs (0-24 h old) were placed in 24-well microtiter plate on artificial diet and treated with test solutions at an application rate of 200 ppm (concentration in well 18 ppm) by pipetting. After an incubation period of 4 days, samples were checked for egg mortality, larval mortality, and growth regulation.

[4] = tested on: Plutella xylostella; test: Plutella xylostella (diamond back moth) artificial diet test; conditions: 144 h, 200 ppm (concentration in well 18 ppm), L2 larvae, 6 days, larval mortality, growth regulation
Protocol: Plutella xylostella (Diamond Back Moth): 24-well microtiter plate (MTP) with artificial diet was treated with test solutions at an application rate of 200 ppm (concentration in well 18 ppm) by pipetting. After drying, the MTP's were infested with L2 larvae (7-12 per well). After an incubation period of 6 days, samples were checked for larval mortality and growth regulation.

Measured: pest or weed control at 200 ppm

O=C(Nc1cc(F)c(F)cc1C1CCN(Cc2ccc(-c3ccc(F)cc3)cc2)CC1)c1ccnc(Cl)c1 [Compound A3, 2-chloro-N-{4,5-difluoro-2-[1-(4′-fluoro-biphenyl-4-ylmethyl)-piperidin-4-yl]-phenyl}-isonicotinamide]
≥ 80%: all assays above

O=C(Nc1cc(F)c(F)cc1C1CC[N+]([O-])(Cc2ccc(-c3ccc(F)cc3)cc2)CC1)c1ccnc(Cl)c1 (centres unmarked) [Compound B1, 2-chloro-N-{4,5-difluoro-2-[1-(4′-fluoro-biphenyl-4-ylmethyl)-1-oxy-piperidin-4-yl]-phenyl}-isonicotinamide]
≥ 80%: all assays above

O=C(Nc1cc(F)c(Br)nc1C1CCN(Cc2ccc(-c3ccc(F)cc3)cc2)CC1)c1ccnc(Cl)c1 [Compound C5, N-[6-bromo-5-fluoro-1′-(4′-fluoro-biphenyl-4-ylmethyl)-1′,2′,3′,4′,5′,6′-hexahydro-[2,4′]bipyridinyl-3-yl]-2-chloro-isonicotinamide]
≥ 80%: all assays above

O=C(Nc1ccc(C(F)F)nc1C1CCN(Cc2ccc(-c3ccc(F)cc3)cc2)CC1)c1ccnc(Cl)c1 [Compound C6]
≥ 80%: all assays above

O=C(Nc1cc(Cl)c(OCC(F)(F)F)nc1C1CCN(Cc2ccc(-c3ccc(F)cc3)cc2)CC1)c1ccnc(Cl)c1 [Compound C9, 2-chloro-N-[5-chloro-1′-(4′-fluoro-biphenyl-4-ylmethyl)-6-(2,2,2-trifluoro-ethoxy)-1′,2′,3′,4′,5′,6′-hexahydro-[2,4′]bipyridinyl-3-yl]-isonicotinamide]
≥ 80%: all assays above

COc1ccc(NC(=O)c2ccnc(Cl)c2)c(C2CCN(Cc3ccc(-c4ccc(F)cc4)cc3)CC2)n1 [Compound C10, 2-chloro-N-[1′-(4′-fluoro-biphenyl-4-ylmethyl)-6-methoxy-1′,2′,3′,4′,5′,6′-hexahydro-[2,4′]bipyridinyl-3-yl]-isonicotinamide]
≥ 80%: all assays above

C=Cc1ccc(NC(=O)c2ccnc(Cl)c2)c(C2CCN(Cc3ccc(-c4ccc(F)cc4)cc3)CC2)n1 [Compound C11, 2-chloro-N-[1′-(4′-fluoro-biphenyl-4-ylmethyl)-6-vinyl-1′,2′,3′,4′,5′,6′-hexahydro-[2,4′]bipyridinyl-3-yl]-isonicotinamide]
≥ 80%: all assays above

O=C(Nc1cc(Cl)c(C2CC2)nc1C1CCN(Cc2ccc(-c3ccc(F)cc3)cc2)CC1)c1ccnc(Cl)c1 [Compound C13, 2-chloro-N-[5-chloro-6-cyclopropyl-1′-(4′-fluoro-biphenyl-4-ylmethyl)-1′,2′,3′,4′,5′,6′-hexahydro-[2,4′]bipyridinyl-3-yl]-isonicotinamide]
≥ 80%: all assays above

O=C(Nc1cc(C(F)(F)F)c(Br)nc1C1CCN(Cc2ccc(-c3ccc(F)cc3)cc2)CC1)c1ccnc(Cl)c1 [Compound C15]
≥ 80%: all assays above

O=C(Nc1cc(C(F)(F)F)c(Cl)nc1C1CCN(Cc2ccc(-c3ccc(F)cc3)cc2)CC1)c1ccnc(Cl)c1 [Compound C16]
≥ 80%: all assays above

O=C(Nc1cc(F)c(Cl)nc1C1CCN(Cc2ccc(-c3ccc(F)cc3)cc2)CC1)c1ccnc(Cl)c1 [Compound C17, 2-chloro-N-[6-chloro-5-fluoro-1′-(4′-fluoro-biphenyl-4-ylmethyl)-1′,2′,3′,4′,5′,6′-hexahydro-[2,4′]bipyridinyl-3-yl]-isonicotinamide]
≥ 80%: all assays above

O=C(Nc1cc(Br)cnc1C1CCN(Cc2ccc(-c3ccc(F)cc3)cc2)CC1)c1ccnc(Cl)c1 [Compound C23, N-[5-bromo-1′-(4′-fluoro-biphenyl-4-ylmethyl)-1′,2′,3′,4′,5′,6′-hexahydro-[2,4′]bipyridinyl-3-yl]-2-chloro-isonicotinamide]
≥ 80%: all assays above

O=C(Nc1cc(Br)c(Cl)nc1C1CCN(Cc2ccc(-c3ccc(F)cc3)cc2)CC1)c1ccnc(Cl)c1 [Compound C24, N-[5-bromo-6-chloro-1′-(4′-fluoro-biphenyl-4-ylmethyl)-1′,2′,3′,4′,5′,6′-hexahydro-[2,4′]bipyridinyl-3-yl]-2-chloro-isonicotinamide]
≥ 80%: all assays above

O=C(Nc1cc(F)c(F)nc1C1CCN(Cc2ccc(-c3ccc(F)cc3)cc2)CC1)c1ccnc(Cl)c1 [Compound C25, 2-chloro-N-{1′-(4′-fluoro-biphenyl-4-ylmethyl)-5,6-difluoro-1′,2′,3′,4′,5′,6′-hexahydro-[2,4′]bipyridinyl-3-yl}-isonicotinamide]
≥ 80%: all assays above

Cc1cc(NC(=O)c2ccnc(Cl)c2)c(C2CCN(Cc3ccc(-c4ccc(F)cc4)cc3)CC2)nc1Cl [Compound C26, 2-chloro-N-[6-chloro-1′-(4′-fluoro-biphenyl-4-ylmethyl)-5-methyl-1′,2′,3′,4′,5′,6′-hexahydro-[2,4′]bipyridinyl-3-yl]-isonicotinamide]
≥ 80%: all assays above

O=C(Nc1c(C2CCN(Cc3ccc(-c4ccc(F)cc4)cc3)CC2)nc(Cl)c(Cl)c1Cl)c1ccnc(Cl)c1 [Compound C30, 2-chloro-N-{4,5,6-trichloro-1′-(4′-fluoro-biphenyl-4-ylmethyl)-1′,2′,3′,4′,5′,6′-hexahydro-[2,4′]bipyridinyl-3-yl}-isonicotinamide]
≥ 80%: all assays above

O=C(Nc1cc(C(F)(F)F)c(F)nc1C1CCN(Cc2ccc(-c3ccc(F)cc3)cc2)CC1)c1ccnc(Cl)c1 [Compound C31, 2-chloro-N-{1′-(4′-fluoro-biphenyl-4-ylmethyl)-6-fluoro-5-trifluoromethyl-1′,2′,3′,4′,5′,6′-hexahydro-[2,4′]bipyridinyl-3-yl}-isonicotinamide]
≥ 80%: all assays above

O=C(Nc1ccc(OC(F)F)nc1C1CCN(Cc2ccc(-c3ccc(F)cc3)cc2)CC1)c1ccnc(Cl)c1 [Compound C40, 2-chloro-N-{1′-(4′-fluoro-biphenyl-4-ylmethyl)-6-difluoromethoxy-1′,2′,3′,4′,5′,6′-hexahydro-[2,4′]bipyridinyl-3-yl}-isonicotinamide]
≥ 80%: all assays above

O=C(Nc1c(F)cc(C(F)(F)F)nc1C1CCN(Cc2ccc(-c3ccc(F)cc3)cc2)CC1)c1ccnc(Cl)c1 [Compound C41, 2-chloro-N-{1′-(4′-fluoro-biphenyl-4-ylmethyl)-4-fluoro-6-trifluoromethyl-1′,2′,3′,4′,5′,6′-hexahydro-[2,4′]bipyridinyl-3-yl}-isonicotinamide]
≥ 80%: all assays above

O=C(Nc1ccc(C(F)(F)F)nc1C1CC[N+]([O-])(Cc2ccc(-c3ccc(F)cc3)cc2)CC1)c1ccnc(Cl)c1 (centres unmarked) [Compound D1, 2-chloro-N-[1′-(4′-fluoro-biphenyl-4-ylmethyl)-1′-oxy-6-trifluoromethyl-1′,2′,3′,4′,5′,6′-hexahydro-[2,4′]bipyridinyl-3-yl]-isonicotinamide]
≥ 80%: all assays above
